In the supplement of paper PMC10307832:

Columns and labels:
Assay in all cases: relative viability (nuclei count vs DMSO), 5 days (fraction); higher = more cells survive
Pemetrexed + OSI-027 = compound: Nc1nc2[nH]cc(CCc3ccc(C(=O)N[C@@H](CCC(=O)O)C(=O)O)cc3)c2c(=O)[nH]1 [Pemetrexed] + COc1cccc2cc(-c3nc([C@H]4CC[C@H](C(=O)O)CC4)n4ncnc(N)c34)[nH]c12 [OSI-027] (partner 0.5 µM)
In short: (§1)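 Dosing by pin tool came one day after lung cancer cell lines were seeded in 1536-well plates, using either one drug or a fixed anchor-drug dose plus five library-drug doses (not always all listed) in √10 steps. After 5 days, nuclei were counted on 4× images. Relative viability is treated-well nuclei count divided by vehicle-well nuclei count, and values are medians of duplicate plates.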

Idelalisib + Pemetrexed = compound: CC[C@H](Nc1ncnc2[nH]cnc12)c1nc2cccc(F)c2c(=O)n1-c1ccccc1 [Idelalisib] + Nc1nc2[nH]cc(CCc3ccc(C(=O)N[C@@H](CCC(=O)O)C(=O)O)cc3)c2c(=O)[nH]1 [Pemetrexed] (partner 0.2 µM)
In short: as §1

Pemetrexed + Alpelisib = compound: Nc1nc2[nH]cc(CCc3ccc(C(=O)N[C@@H](CCC(=O)O)C(=O)O)cc3)c2c(=O)[nH]1 [Pemetrexed] + Cc1nc(NC(=O)N2CCC[C@H]2C(N)=O)sc1-c1ccnc(C(C)(C)C(F)(F)F)c1 [Alpelisib] (partner 2 µM)
In short: as §1

Idelalisib + Decitabine = compound: CC[C@H](Nc1ncnc2[nH]cnc12)c1nc2cccc(F)c2c(=O)n1-c1ccccc1 [Idelalisib] + Nc1ncn([C@H]2C[C@H](O)[C@@H](CO)O2)c(=O)n1 [Decitabine] (partner 2 µM)
In short: as §1

UMC-11
relative viability (Pemetrexed + OSI-027; first compound 0.002 µM): 0.501 | relative viability (Pemetrexed + OSI-027; first compound 0.006325 µM): 0.482 | relative viability (Pemetrexed + OSI-027; first compound 0.02 µM): 0.481 | relative viability (Pemetrexed + OSI-027; first compound 0.06325 µM): 0.522 | relative viability (Pemetrexed + OSI-027; first compound 0.2 µM): 0.487 | relative viability (Idelalisib + Pemetrexed; first compound 0.04 µM): 0.673 | relative viability (Idelalisib + Pemetrexed; first compound 0.1265 µM): 0.77 | relative viability (Idelalisib + Pemetrexed; first compound 0.4 µM): 0.793 | relative viability (Idelalisib + Pemetrexed; first compound 1.265 µM): 0.839 | relative viability (Idelalisib + Pemetrexed; first compound 4 µM): 0.936 | relative viability (Pemetrexed + Alpelisib; first compound 0.002 µM): 1.04 | relative viability (Pemetrexed + Alpelisib; first compound 0.006325 µM): 1.03 | relative viability (Pemetrexed + Alpelisib; first compound 0.02 µM): 1 | relative viability (Pemetrexed + Alpelisib; first compound 0.06325 µM): 1.03 | relative viability (Pemetrexed + Alpelisib; first compound 0.2 µM): 0.829 | relative viability (Idelalisib + Decitabine; first compound 0.04 µM): 0.698 | relative viability (Idelalisib + Decitabine; first compound 0.1265 µM): 0.595 | relative viability (Idelalisib + Decitabine; first compound 0.4 µM): 0.577 | relative viability (Idelalisib + Decitabine; first compound 1.265 µM): 0.609 | relative viability (Idelalisib + Decitabine; first compound 4 µM): 0.333
